Holding throughout (assay): MIC, agar dilution
Holding throughout (assay type): cell-based
On the technique in general: In agar dilution the substance is mixed into plates at graded concentrations.

Test [1] relates to E. Faecalis (EFAE 9217). The following applies: Enterococcus faecalis, E. Faecalis 9217, overnight at 35° C. On the procedure: (§1) The in vitro MICs of test compounds were determined by a standard agar dilution method. A stock drug solution of each analog was prepared in the preferred solvent, usually DMSO:H2O (1:3). Serial 2-fold dilutions of each sample are made using 1.0 ml aliquots of sterile distilled water. To each 1.0 ml aliquot of drug was added 9 ml of molten Mueller Hinton agar medium. The drug-supplemented agar was mixed, poured into 15×100 mm petri dishes, and allowed to solidify and dry prior to inoculation.
(§2) Vials of each of the test organisms are maintained frozen in the vapor phase of a liquid nitrogen freezer. Test cultures are grown overnight at 35° C. on the medium appropriate for the organism. Colonies are harvested with a sterile swab, and cell suspensions are prepared in Trypticase Soy broth (TSB) to equal the turbidity of a 0.5 McFarland standard. A 1:20 dilution of each suspension was made in TSB. The plates containing the drug supplemented agar are inoculated with a 0.001 ml drop of the cell suspension using a Steers replicator, yielding approximately 10^4 to 10^5 cells per spot. The plates are incubated overnight at 35° C.
(§3) Following incubation the Minimum Inhibitory Concentration (MIC μg/ml), the lowest concentration of drug that inhibits visible growth of the organism, was read and recorded.

The subject of test [2] is E. Faecium (EFAE 12712). The following applies: Enterococcus faecium, E. Faecium 12712, overnight at 35° C. Here is the method: as §1, §2, §3
Test [3] deals with H. influenzae (HINF 30063). The following applies: Haemophilus influenzae, H. influenzae 30063, overnight at 35° C. Here is the method:
as §1, §2, §3

The test system of test [4] is H. influenzae (HINF 31810). The following applies: Haemophilus influenzae, H. influenzae 31810, overnight at 35° C. On the procedure:
as §1, §2, §3

Test [5] deals with M. catarrhalis (MCAT 30607). The following applies: Moraxella catarrhalis, M. catarrhalis 30607, overnight at 35° C. On the procedure:
as §1, §2, §3

The test system of test [6] is S. aureus (SAUR 31583). The following applies: Staphylococcus aureus, S. aureus 31583, overnight at 35° C. On the procedure:
as §1, §2, §3

Test [7] has as its system S. aureus (SAUR 9213). The settings on record: Staphylococcus aureus, S. aureus 9213, overnight at 35° C. On the procedure:
as §1, §2, §3

The subject of test [8] is S. epidermidis (SEPI 30593). The settings on record: Staphylococcus epidermidis, S. epidermidis 30593, overnight at 35° C. On the procedure:
as §1, §2, §3

Test [9] has as its system S. pneumonia (SPNE 9912). The settings on record: S. pneumonia 9912, overnight at 35° C. Here is the method: as §1, §2, §3
Test [10] concerns S. pyogenes (SPYO 152). The following applies: Streptococcus pyogenes, S. pyogenes 152, overnight at 35° C. Here is the method:
as §1, §2, §3

The text below walks through data of US7141570B2, “N-aryl-2-oxazolidinone-5-carboxamides and their derivatives” (Pharmacia & Upjohn Company, priority 2002, dated 2006).

Each structure is given as a SMILES string. Values after ≈ are worked out from the molar mass of the structure shown.

Regarding `CCC(=S)NC[C@H]1CN(c2ccc(N3CCN(C(=O)COc4ccc(CN(CC)CC)cc4)CC3)c(F)c2)C(=O)O1` [Compound 9], the MIC came to 2 µg/mL (≈ 3.41 µM) in [1]; 2 µg/mL (≈ 3.41 µM) in [2]; 32 µg/mL (≈ 54.6 µM) in test [3]; 32 µg/mL (≈ 54.6 µM) in test [4]; 4 µg/mL (≈ 6.83 µM) in test [5]; 32 µg/mL (≈ 54.6 µM) in test [6]. Further, the MIC is 4 µg/mL (≈ 6.83 µM) in test [7], 2 µg/mL (≈ 3.41 µM) in test [8], 0.25 µg/mL (≈ 0.427 µM) in test [9] and 0.25 µg/mL (≈ 0.427 µM) in test [10].
Regarding `CCN(CC)Cc1ccc(OCC(=O)N2CCN(c3ccc(N4C[C@H](CNC(=S)C5CC5)OC4=O)cc3F)CC2)cc1` [Compound 10], the MIC in test [1] was found to be 2 µg/mL (≈ 3.35 µM); in test [2], 2 µg/mL (≈ 3.35 µM); in [3], 32 µg/mL (≈ 53.5 µM); in [4], 32 µg/mL (≈ 53.5 µM); in [5] it was 2 µg/mL (≈ 3.35 µM); in test [6], 8 µg/mL (≈ 13.4 µM). Further, the MIC in test [7] is 2 µg/mL (≈ 3.35 µM); in [8] it was 1 µg/mL (≈ 1.67 µM); in [9], 0.25 µg/mL (≈ 0.418 µM); in [10], 0.25 µg/mL (≈ 0.418 µM).
`CCC(=S)NC[C@H]1CN(c2ccc(N3CCN(C(=O)COc4ccc(CN(C)C)cc4)CC3)c(F)c2)C(=O)O1` [Compound 13]: the MIC in test [1] amounted to 1 µg/mL (≈ 1.79 µM); in [2], 2 µg/mL (≈ 3.59 µM); in test [3] it was 16 µg/mL (≈ 28.7 µM); in test [4] it was 16 µg/mL (≈ 28.7 µM); in test [5], 4 µg/mL (≈ 7.17 µM); in test [6] it was 16 µg/mL (≈ 28.7 µM). Moreover, the MIC is 8 µg/mL (≈ 14.3 µM) in [7], 1 µg/mL (≈ 1.79 µM) in test [8], 0.125 µg/mL (≈ 0.224 µM) in test [9] and 0.25 µg/mL (≈ 0.448 µM) in test [10].
As to `CC(=O)NC[C@H]1CN(c2ccc(N3CCN(C(=O)COc4ccc(CN(C)C)cc4)CC3)c(F)c2)C(=O)O1` [Compound 14], the MIC in test [1] is 8 µg/mL (≈ 15.2 µM); in test [2] it was 8 µg/mL (≈ 15.2 µM); in test [3], 64 µg/mL (≈ 121 µM); in test [4], 32 µg/mL (≈ 60.7 µM); in test [5] it was 32 µg/mL (≈ 60.7 µM); in [6], more than 64 µg/mL. The MIC was 16 µg/mL (≈ 30.3 µM) in test [7], 8 µg/mL (≈ 15.2 µM) in test [8], 0.5 µg/mL (≈ 0.948 µM) in test [9] and 0.5 µg/mL (≈ 0.948 µM) in [10].
For `CCC(=S)NC[C@H]1CN(c2ccc(N3CCN(C(=O)COc4ccc(CN5CCOCC5)cc4)CC3)c(F)c2)C(=O)O1` [Compound 17], the MIC in test [1] is 1 µg/mL (≈ 1.67 µM); in test [2], 2 µg/mL (≈ 3.33 µM); in test [3], 64 µg/mL (≈ 107 µM); in test [4] it was 32 µg/mL (≈ 53.4 µM); in test [5] it was 4 µg/mL (≈ 6.67 µM); in test [6] it was 32 µg/mL (≈ 53.4 µM). Moreover, the MIC in test [7] was 8 µg/mL (≈ 13.3 µM); in test [8] it was 2 µg/mL (≈ 3.33 µM); in [9], 0.25 µg/mL (≈ 0.417 µM); in test [10], 0.5 µg/mL (≈ 0.834 µM).
Consider `O=C(COc1ccc(CN2CCOCC2)cc1)N1CCN(c2ccc(N3C[C@H](CNC(=S)C4CC4)OC3=O)cc2F)CC1` [Compound 18], for which the MIC was found to be 1 µg/mL (≈ 1.63 µM) in [1]; 2 µg/mL (≈ 3.27 µM) in test [2]; 64 µg/mL (≈ 105 µM) in test [3]; 32 µg/mL (≈ 52.3 µM) in test [4]; 2 µg/mL (≈ 3.27 µM) in [5]; 16 µg/mL (≈ 26.2 µM) in test [6]. Also, the MIC came to 4 µg/mL (≈ 6.54 µM) in [7], 1 µg/mL (≈ 1.63 µM) in test [8], 0.25 µg/mL (≈ 0.409 µM) in [9] and 0.25 µg/mL (≈ 0.409 µM) in [10].
For the compound `CC(=O)NC[C@H]1CN(c2ccc(N3CCN(C(=O)COc4ccc(CN5CCOCC5)cc4)CC3)c(F)c2)C(=O)O1` [Compound 19], the MIC in [1] is 4 µg/mL (≈ 7.02 µM); in test [2], 8 µg/mL (≈ 14 µM); in test [3] it was more than 64 µg/mL; in test [4], 64 µg/mL (≈ 112 µM); in test [5], 64 µg/mL (≈ 112 µM); in test [6], more than 64 µg/mL. For the same compound, the MIC is 16 µg/mL (≈ 28.1 µM) in [7], 8 µg/mL (≈ 14 µM) in [8], 1 µg/mL (≈ 1.76 µM) in test [9] and 1 µg/mL (≈ 1.76 µM) in test [10].
